Substitutions are numbered along the chain they refer to.
Key:
AGTM or AGT21 = test: One-pot labeling and separation with streptavidin magnetic beads; type: biochemical, human; settings: 5 μM protein, 10 μM substrate, 1 hour; fluorescence 490/535 nm in supernatant
Description: In other experiments, purified AGTM or AGT21 (Example 47) in a protein concentration of 5 μM are incubated with 10 μM N-[4-(2-amino-8-(3-(N-(+)-biotinyl-6-aminocaproyl)-aminopropyl)-9H-purin-6-yloxymethyl)-benzyl]-fluoresceine-5(6)-carboxamide (52, Example 34) in 50 μl buffer containing 100 mM NaCl, 50 mM Tris, pH 8.0, 0.1% Tween, 1 mM DTT at room temperature. After 1 hour, streptavidin coated magnetic beads (Magnabind Streptavidin, Pierce) with a capacity to bind at least 1 nmol biotin are added and the incubation time and magnetic separation from the supernatant containing fluorescein-labeled protein are done according to manufacturer's instructions for use. The amount of protein in solution before and after the treatment with magnetic beads is determined by Bradford assay. The loss of protein is less than 30%. The labeling efficiency is determined by measuring the fluorescence intensity using a Victor2 microplate reader (Perkin Elmer) at 490 nm excitation and 535 nm emission in the supernatant after removal of the unreacted substrate and released product by binding to the beads and magnetic separation. The labeling efficiency is at least 20%.

AGTM = target: T1, AGTM (Homo sapiens, UniProt P16455, A127T/C150N/C62A/G131K/G132T/K125A/M134L/N157G/Q115S/Q116H/R128A/R135S/S151I/S152N/S159E); test: Labeling with substrate pre-immobilized on streptavidin magnetic beads; type: biochemical; settings: AGTM 50 μM, 20 h
T1 construct: a truncation after codon 182 into the mutant AGT gene
T1 sequence (P16455 1-182 C62A/Q115S/Q116H/K125A/A127T/R128A/G131K/G132T/M134L/R135S/C150N/S151I/S152N/N157G/S159E): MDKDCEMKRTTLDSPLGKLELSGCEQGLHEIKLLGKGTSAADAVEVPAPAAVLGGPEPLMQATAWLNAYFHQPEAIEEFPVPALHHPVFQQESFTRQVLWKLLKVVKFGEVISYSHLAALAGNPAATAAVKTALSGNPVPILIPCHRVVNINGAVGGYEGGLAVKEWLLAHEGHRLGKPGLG
Description: In a further experiment, wherein the substrate is pre-immobilized, streptavidin coated magnetic beads (Magnabind Streptavidin, Pierce) with a capacity to bind […] biotin per ml are incubated with twofold excess of compound 52 (as above) in buffer containing 100 mM NaCl, 50 mM Tris, pH 8.0, 0.1% Tween at room temperature to immobilize the substrate to the beads. The incubation time and magnetic separation from the supernatant are done according to manufacturer's instructions for use. Unbound substrate is removed with buffer by 3 subsequent washing steps. AGTM at a protein concentration of 50 μM is incubated with these substrate-modified beads in 50 μl buffer containing 100 mM NaCl, 50 mM Tris, pH 8.0, 0.1% Tween, 1 mM DTT at room temperature. After 20 h, the beads are separated from the supernatant containing fluorescein-labeled protein. The amount of protein in solution before and after the treatment with magnetic beads is determined by Bradford assay.

AGTM (mutant AGT) = target: T2, AGTM (mutant AGT) (Homo sapiens, UniProt P16455, A127T/C150N/C62A/G131K/G132T/K125A/M134L/N157G/Q115S/Q116H/R128A/R135S/S151I/S152N/S159E); test: Reaction rate of AGT mutant with substrate, BGBT capture and Western blot; type: biochemical
T2 construct: a truncation after codon 182 into the mutant AGT gene; 6xHis
T2 sequence (P16455 1-182 C62A/Q115S/Q116H/K125A/A127T/R128A/G131K/G132T/M134L/R135S/C150N/S151I/S152N/N157G/S159E): T1 sequence (P16455 1-182 C62A/Q115S/Q116H/K125A/A127T/R128A/G131K/G132T/M134L/R135S/C150N/S151I/S152N/N157G/S159E)
From the text: Proteins are then denatured with SDS and heat. Samples are subjected to SDS-PAGE and Western blot analysis. The intensity of the corresponding bands is detected by chemiluminescence stain.
A second AGT mutant (“AGTM”) containing the mutations Cys62Ala, Gln115Ser, Gln116His, Lys125Ala, Ala127Thr, Arg128Ala, Gly131Lys, Gly132Thr, Met134Leu, Arg135Ser, Cys150Asn, Ser15111e, Ser152Asn, Asn157Gly, Ser159G1u, and truncation at 182 is derived from the mentioned above AGT mutant by subsequent introduction of further mutations and a truncation after codon 182 into the mutant AGT gene. […] The GST-fusion protein is expressed and purified as well.
AGTM (1 μM final concentration) is incubated with N^9-cyclopentyl-O^6-(4-bromothiophen-2-yl)-guanine (18, CPTG) (10 μM in 1% DMSO final concentration) in reaction buffer (50 mM HEPES, 1 mM DTT, […] BSA, pH 7.3) at 24° C. […] The reaction is quenched by addition of SDS-Laemmli buffer and heating for 2 min at 95° C. Samples are run on a 12% acrylamide gel and analysed by Western blotting.

wild type hAGT = target: T3, wild type hAGT (Homo sapiens, UniProt P16455); test: In vitro competition between CPTG and BGBT, separate incubation; type: biochemical; settings: CPTG 20 times higher than BGBT (0.5 μM), after 45 minutes
T3 sequence (P16455 1-207): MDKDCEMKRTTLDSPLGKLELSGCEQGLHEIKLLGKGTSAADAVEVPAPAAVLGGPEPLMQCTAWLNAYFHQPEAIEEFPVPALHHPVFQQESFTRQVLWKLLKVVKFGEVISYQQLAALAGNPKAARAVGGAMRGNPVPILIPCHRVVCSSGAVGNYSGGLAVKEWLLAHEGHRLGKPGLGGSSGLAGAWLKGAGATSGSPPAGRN
Description: (§1) The reaction is quenched by addition of 2×SDS buffer and placed 2 min at 95° C. Samples are run on a 12% acrylamide gel and analysed by Western blotting.

Mutant AGT (AGTM) = target: T4, Mutant AGT (AGTM) (Homo sapiens, UniProt P16455, A127T/C150N/C62A/G131K/G132T/K125A/M134L/N157G/Q115S/Q116H/R128A/R135S/S151I/S152N/S159E); test: as above; type: biochemical; settings: CPTG 20 times higher than BGBT (0.5 μM), after 45 minutes
T4 construct: a truncation after codon 182 into the mutant AGT gene
T4 sequence (P16455 1-182 C62A/Q115S/Q116H/K125A/A127T/R128A/G131K/G132T/M134L/R135S/C150N/S151I/S152N/N157G/S159E): T1 sequence (P16455 1-182 C62A/Q115S/Q116H/K125A/A127T/R128A/G131K/G132T/M134L/R135S/C150N/S151I/S152N/N157G/S159E)
Description: as §1

[1] = target: T5, AGTM-6×His fusion protein (Homo sapiens, UniProt P16455, A127T/C150N/C62A/G131K/G132T/K125A/M134L/N157G/Q115S/Q116H/R128A/R135S/S151I/S152N/S159E); test: In vitro competition CPTG/BGBT, both proteins in one solution; type: biochemical; settings: both substrates CPTG and BGBT 5 μM, 30 min
T5 construct: a truncation after codon 182 into the mutant AGT gene; 6xHis
T5 sequence (P16455 1-182 C62A/Q115S/Q116H/K125A/A127T/R128A/G131K/G132T/M134L/R135S/C150N/S151I/S152N/N157G/S159E): T1 sequence (P16455 1-182 C62A/Q115S/Q116H/K125A/A127T/R128A/G131K/G132T/M134L/R135S/C150N/S151I/S152N/N157G/S159E)
Description: (§2) Detection of the AGTM-BGBT complex with luminescent peroxidase substrate is as described for FIG. 2.
as §1
(§3) In comparing the reaction of AGTM and wild type hAGT, a high specificity of CPTG toward hAGT is observed. At the same concentration (both substrates 5 μM final concentration), 95% of wild type AGT has reacted with CPTG versus only 5% of AGTM.

[2] = target: T6, wild type hAGT-GST fusion protein (Homo sapiens, UniProt P16455); test: as above; type: biochemical; settings: both substrates CPTG and BGBT 5 μM, 30 min
T6 sequence (P16455 1-207): T3 sequence (P16455 1-207)
Description: as §2, §1, §3

[3] = target: T7, AGTM-β-galactosidase fusion protein in CHO cells (Homo sapiens, UniProt P16455, A127T/C150N/C62A/G131K/G132T/K125A/M134L/N157G/Q115S/Q116H/R128A/R135S/S151I/S152N/S159E); test: Intracellular competition of two AGT mutants with two substrates in CHO cells; type: cell-based; settings: 5 μM CPTG 10 min, then 5 μM BG-AcFL 20 min
T7 construct: a truncation after codon 182 into the mutant AGT gene; expressed in transfected cells; host or cells: CHO cells, transient expression
T7 sequence (P16455 1-182 C62A/Q115S/Q116H/K125A/A127T/R128A/G131K/G132T/M134L/R135S/C150N/S151I/S152N/N157G/S159E): T1 sequence (P16455 1-182 C62A/Q115S/Q116H/K125A/A127T/R128A/G131K/G132T/M134L/R135S/C150N/S151I/S152N/N157G/S159E)
From the text: (§4) The mutant AGTM (Example 47) is amplified with the suitable primers and cloned between the NheI and BglII sites of the vector pEGFP-Nuc. The yeast β-galactosidase gene is likewise amplified and subcloned into this vector via BglII/BamHI to result in a vector with an AGT-β-Gal fusion gene. The wild type hAGT gene is amplified and cloned via NheI/BglII into pEGFP-Nuc to result in an AGT-NLS3 fusion gene coding for the mutation Gly160Trp.

[4] = target: T8, AGT (Gly160Trp)-NLS3 fusion protein in the nucleus of CHO cells (Homo sapiens, UniProt P16455, G160W); test: as above; type: cell-based; settings: 5 μM CPTG 10 min, then 5 μM BG-AcFL 20 min
T8 construct: expressed in transfected cells; host or cells: CHO cells, transient expression
T8 sequence (P16455 1-207 G160W): T3 sequence (P16455 1-207) with G160W
From the text: as §4

labeling efficiency (AGTM)	loss of protein (AGTM; Bradford assay)	activity ratio of the two substrates BGBT/CPTG (AGTM (mutant AGT); AGTM)	second order rate constant k2 (AGTM (mutant AGT); AGTM 1 μM, substrate 10 μM, 24° C., pH 7.3) [M⁻¹ s⁻¹]	wild type AGT quenched by CPTG (wild type hAGT) [%]	mutant AGTM still active (Mutant AGT (AGTM)) [%]	AGTM reacted with CPTG [1] [%]	wild type AGT reacted with CPTG [2] [%]	reaction with CPTG inside cells [3]	reaction with CPTG inside cells [4]	Substance	labeling efficiency (AGTM or AGT21)
at least 20%	less than 30%	–	–	–	–	–	–	–	–	N-[4-(2-Amino-8-(3-(N-(+)-biotinyl-6-aminocaproyl)-aminopropyl)-9H-purin-6-yloxymethyl)-benzyl]-fluoresceine-5(6)-carboxamide [compound 52]	at least 20%
–	–	at least 25	92.5	95	87	5	95	does not react with CPTG	efficiently reacts with CPTG	N^9-Cyclopentyl-O^6-(4-bromothiophen-2-yl)-guanine [CPTG]	–

— US8163479B2, “Specific substrates for O6-alkylguanine-DNA alkyltransferase” (Ecole Polytechnique Federale de Lausanne, priority 2004, dated 2012)
